Converted amounts (≈) assume the structure as drawn. “And” between values parts separate entries of the source, which are not always exact repeats. Equal entries are not always repeated. Where two headings read alike, the source gives them in different places.
Assays:
[1] = test system: Acinetobacter baumannii (ATCC 19606); experiment: Antibacterial whole-cell growth inhibition (MIC, CO-ADD); assay type: cell-based; settings: A. baumannii, two replicates per cell
Experimental: (§1) Antibacterial screening was carried out by the serial dilution method. All bacteria were cultured in the cation-adjusted Mueller Hinton broth (CAMHB) at 37 °C overnight. A sample of each culture was then diluted 40-fold in fresh broth and incubated at 37 °C for 1.5–3 h. The resultant mid-log phase cultures were diluted (CFU/mL measured by OD600) and then added into each well containing a test compound, giving a cell density of 5 × 10^5 CFU/mL and a total volume of 50 µL. All the plates were covered and incubated at 37 °C for 18 h without shaking.
(§2) Inhibition of bacterial growth was determined by measuring the absorbance at 600 nm (OD600) with a Tecan M1000 Pro monochromator plate reader. […]

[2] = test system: Escherichia coli (ATCC 25922); experiment: as above; assay type: cell-based; settings: E. coli, two replicates per cell
Experimental: as §1, §2

[3] = test system: Pseudomonas aeruginosa (ATCC 27853); experiment: as above; assay type: cell-based; settings: P. aeruginosa, two replicates per cell
Experimental: as §1, §2

[4] = test system: Staphylococcus aureus (ATCC 43300) (MRSA); experiment: as above; assay type: cell-based; settings: S. aureus (MRSA) ATCC 43300, inhibition ≥80%, two replicates (n = 2)
Experimental: as §1, §2

[5] = test system: Candida albicans (ATCC 90028); experiment: Antifungal growth inhibition (MIC, CO-ADD); assay type: cell-based; settings: C. albicans, inhibition ≥80%, two replicates per cell
[6] = Ion permeability, pore formation and rupture of planar lipid bilayers; settings: for formation of ion-permeable pores: DPhPG bilayers; for Cbr (threshold concentration required to rupture the bilayer): 0.1 M KCl, pH 7.4, 100 mV
Experimental: Synthetic 1,2-diphytanoyl-sn-glycero-3-phosphocholine (DPhPC) and 1,2-diphytanoyl-sn-glycero-3-phospho-(1′-rac-glycerol) (DPhPG) were purchased from Avanti® Polar Lipids (Avanti Polar Lipids, Inc., Alabaster, AL, USA). A KCl solution (0.1 M) was buffered with 5 mM HEPES, pH 7.4. Bilayer lipid membranes were prepared from DPhPC or DPhPG using a monolayer-opposition technique on a 50 µm-diameter aperture in a 10 µm-thick Teflon film separating the cis- and trans-compartments of the Teflon chamber. Experiments were performed in chambers containing 0.1 M KCl, 5 mM Hepes-KOH, pH 7.4.
The test compounds (4, 20, 22) were added to the cis-chamber as 10 mg/mL solutions in ethanol (to mimic the physiologically relevant conditions) up to the final concentrations and the effects of the compounds on the ion permeability of the model lipid membranes were studied. Ag/AgCl electrodes with 1.5% agarose/2 M KCl bridges were used to apply the transmembrane voltage (V) and measure the transmembrane current (I). ‘Positive voltage’ refers to the case in which the cis-side compartment is positive with respect to the trans-side. All experiments were performed at room temperature.
The current was measured using an Axopatch 200B amplifier (Molecular Devices, LLC, Orlean, CA, USA) in voltage clamp mode. Data were digitized using a Digidata 1440A and analyzed using pClamp 10.0 (Molecular Devices, LLC, Orlean, CA, USA) and Origin 8.0 (OriginLab Corporation, Northampton, MA, USA). The data were acquired at a sampling frequency of 5 kHz using low-pass filtering at 200 Hz.
The threshold concentrations (Cbr) of the derivatives required to rupture the bilayers composed of DPhPC or DPhPG at a transmembrane voltage of 100 mV were determined. Cbr-values were averaged from 3 to 4 bilayers and presented as mean ± standard error (p ≤ 0.05).
Pore-forming ability of compound 22 was studied by applying transmembrane voltages in a range of 50–200 mV with 50 mV step and by increasing the derivative concentration in the bilayer bathing solution from 10 to 150 µg/mL.

[7] = Measurement of the membrane boundary potential (K+-nonactin conductance); settings: 0.1 M KCl, pH 7.4, 50 mV
Experimental: Measurement of the membrane boundary potential. Virtually solvent-free planar lipid bilayers were made of DPhPC or DPhPG as described above. After the membrane was completely formed and stabilized and its stability was assessed by applying voltages in a range from −200 to 200 mV with a 50 mV step for 5–10 min, stock solutions of nonactin A (7 μg/mL in ethanol) were added to the bathing solution (0.1 M KCl, 5 mM HEPES, pH 7.4) in both chamber compartments to obtain a final concentration ranging from 0.1 to 1 μM.
Test derivatives (4, 20, 22) as 10 mg/mL solutions in ethanol were added to both compartments in a concentration range from 5 µg/mL to Cbr in increments of 25 µg/mL.
The conductance of the bilayers was determined by measuring the membrane conductance (G) at a constant transmembrane voltage of 50 mV. In the subsequent calculations, the membrane conductance was assumed to be related to the membrane boundary potential (φb), the potential drop between the aqueous solution and the membrane hydrophobic core, by the Boltzmann distribution (1) Gm/Gm0=exp(eΔφb/kT) where Gm and Gm^0 are the steady-state membrane conductances induced by K^+-nonactin in the presence and absence of test compounds, respectively; e, k, and T have their usual meanings.
The changes in the membrane boundary potential for the defined experimental conditions were averaged from 4 bilayers and presented as mean ± standard deviation (p ≤ 0.05).

[8] = Calcein release from liposomes; settings: for τ (characteristic time of marker release): 5 μg/mL; for IFmax (maximum release of fluorescent marker from lipid vesicles): 5 μg/mL of test compound
Experimental: Calcein release from liposomes. Small unilamellar vesicles (Ø100 nm) composed of 1,2-dioleoyl-sn-glycero-3-phosphocholine (DOPC) or 1,2-dioleoyl-sn-glycero-3-phospho-(1′-rac-glycerol) (DOPG) and loaded with the fluorescent dye calcein (35 mM) were obtained using a mini-extruder (Avanti Polar Lipids, Alabaster, AL, USA). At this concentration, calcein fluorescence inside the liposomes is self-quenched. The calcein that was not entrapped in the vesicles was removed by gel filtration with calcein-free solution (150 mM KCl, 10 mM HEPES, pH 7.4). An increase in the free calcein fluorescence in a surrounding medium is a measure of the disturbance of membrane integrity, in the absence and presence of test compounds (4, 20, 22). The control samples were not modified. Experimental samples were treated by 5 µg/mL of the compounds (4, 20, 22). Fluorescence of released calcein was determined on a Fluorat-02-Panorama spectrofluorimeter (Lumex, Saint-Petersburg, Russia) (excitation wavelength of 490 nm, emission wavelength of 520 nm). The detergent Triton X-100 (at a final concentration of 1%) was added at the end of experiments for complete disruption of liposomes (complete release of calcein from the vesicles).
The relative intensity of calcein fluorescence (IF, %) was calculated as:(2) IF=I−I0/Imax/0.9−I0⋅100% where I and I0 are the calcein fluorescence intensities in the presence and absence of test compounds, respectively, and Imax is the maximal fluorescence after treatment of liposomes with Triton X-100 (a factor of 0.9 was introduced to account for sample dilution by Triton X-100).

[9] = Acinetobacter baumannii, ATCC19606, read-out: MIC
[10] = Escherichia coli, ATCC25922, read-out: MIC
[11] = Pseudomonas aeruginosa, ATCC27853, read-out: MIC
[12] = Candida albicans, ATCC90028, read-out: MIC

Structure (SMILES) | MIC [1] | MIC [1, 9] | MIC [2] | MIC [2, 10] | MIC [3] | MIC [3, 11] | MIC [5] | MIC [5, 12] | formation of ion-permeable pores [6] | Cbr (threshold concentration required to rupture the bilayer) ([6]; DPhPG) | −Δφb(max) (maximum decrease in the membrane boundary potential) ([7]; DPhPC) | −Δφb(max) (maximum decrease in the membrane boundary potential) ([7]; DPhPG) | τ (characteristic time of marker release) ([8]; DOPC) | IFmax (maximum release of fluorescent marker from lipid vesicles) ([8]; DOPC) | τ (characteristic time of marker release) ([8]; DOPG) | IFmax (maximum release of fluorescent marker from lipid vesicles) ([8]; DOPG) | other results
COC(=O)/C(CCC=C(C)C)=C1\[C@@H](OC(C)=O)C[C@@]2(C)[C@@H]1C[C@@H](O)[C@@H]1[C@@]3(C)CC[C@H](NCCCNCCCCNCCCN)[C@@H](C)C3CC[C@@]12C (stereo partly drawn) [Compound 22, Methyl (2Z)-2-[(3β,4α,8α,11α,14β,16β)-16-(acetyloxy)-3-{[3-({4-[(3-aminopropyl)amino]butyl}amino)propyl]amino}-11-hydroxy-4,8,10,14-tetramethylgonan-17-ylidene]-6-methylhept-5-enoate] | 32 µg/mL (≈ 44.8 µM) | 32 µg/mL (≈ 44.8 µM) | 32 µg/mL (≈ 44.8 µM) | 32 µg/mL (≈ 44.8 µM) | 32 µg/mL (≈ 44.8 µM) | 32 µg/mL (≈ 44.8 µM) | 32 µg/mL (≈ 44.8 µM) | 32 µg/mL (≈ 44.8 µM) | able to produce stepwise current fluctuations | 135 ± 10 µg/mL | 40 ± 8 mV | 23 ± 8 mV | 0.7 ± 0.2 min | 95 ± 2% | 9.8 ± 0.4 min | 83 ± 3% | MIC ([4]; Staphylococcus aureus, read-out: MIC): 2 µg/mL (≈ 2.8 µM); concentration from which (up to Cbr) stepwise current fluctuations are produced ([6]; DPhPG): 35 to 40 µg/mL; amplitude of the stepwise current fluctuations ([6]; DPhPG, pores induced by the compound): 20–160 pS
COC(=O)/C(CCC=C(C)C)=C1\[C@@H](OC(C)=O)C[C@@]2(C)[C@@H]1C[C@@H](O)[C@@H]1[C@@]3(C)CC[C@H](NCCCNCCCCN)[C@@H](C)C3CC[C@@]12C (stereo partly drawn) [Compound 20, Methyl (2Z)-2-[(3β,4α,8α,11α,14β,16β)-16-(acetyloxy)-3-({3-[(4aminobutyl)amino]propyl}amino)-11-hydroxy-4,8,10,14-tetramethylgonan-17-ylidene]-6-methylhept-5-enoate] | 32 µg/mL (≈ 48.6 µM) | 32 µg/mL (≈ 48.6 µM) | 32 µg/mL (≈ 48.6 µM) | 32 µg/mL (≈ 48.6 µM) | >32 >32 µg/mL | > 32 µg/mL | 32 µg/mL (≈ 48.6 µM) | 32 µg/mL (≈ 48.6 µM) | not able to form transient ion-permeable pores | 190 ± 13 µg/mL | 29 ± 7 mV | 11 ± 4 mV | 0.5 ± 0.2 min | 88 ± 3% | 1.0 ± 0.1 min | 87 ± 4% | MIC [4]: 4.0 µg/mL and 8.0 µg/mL; concentration up to which ionic permeability of lipid bilayers is not affected ([6]; DPhPG): ≤ 200 µg/mL

From publication PMC10056636, “3-Amino-Substituted Analogues of Fusidic Acid as Membrane-Active Antibacterial Compounds” (Membranes, 2023)
